Results reported in patent publication US20170266133A1 (priority 2014, published 2017).

How the values were obtained:
adults with ADHD [1] = type: in vivo, human
Method: (§1) The study consisted of 3 periods including Screening, Treatment, and Washout/Follow-up, as described below. Efficacy was evaluated using the ADHD Rating Scale Version IV (ADHD RS-IV) with adult prompts. Effects on cognition were evaluated using the […]. Safety and tolerability were monitored throughout the study by collection of physical examinations, 12-lead electrocardiograms (ECG), vital signs, adverse events (AEs), hematology, blood chemistry, urinalysis, Insomnia Severity Index (ISI), and Columbia-Suicide Severity Rating Scale (C-SSRS).
(§2) Subjects self-administered the study drug at home on Days 1 through 28, at approximately the same time each night. After Day 1 subjects returned to the clinic on Days 8, 15, 22, and 29. Beginning at Day 1 and at every visit during the treatment period, the ADHD RS-IV, Wender-Reimherr Adult Attention Deficit Disorder Scale (WRAADDS), and clinical global impression—severity (CGI-S) were completed. The clinical data repository system was administered at Baseline, and Days 15 and 29.
(§3) At Days 36 and 43, subjects returned to the clinic and the ADHD RS-IV, WRAADDS, and CGI-S were completed. The clinical data repository system was completed on Day 43.

clinical [2] = conditions: human, in vivo, 8 mg
NE transporters (NET) = NE transporters (NET) (Homo sapiens, UniProt P23975); assay: norepinephrine uptake inhibition; type: biochemical
Sequence of NE transporters (NET) (P23975 whole entry): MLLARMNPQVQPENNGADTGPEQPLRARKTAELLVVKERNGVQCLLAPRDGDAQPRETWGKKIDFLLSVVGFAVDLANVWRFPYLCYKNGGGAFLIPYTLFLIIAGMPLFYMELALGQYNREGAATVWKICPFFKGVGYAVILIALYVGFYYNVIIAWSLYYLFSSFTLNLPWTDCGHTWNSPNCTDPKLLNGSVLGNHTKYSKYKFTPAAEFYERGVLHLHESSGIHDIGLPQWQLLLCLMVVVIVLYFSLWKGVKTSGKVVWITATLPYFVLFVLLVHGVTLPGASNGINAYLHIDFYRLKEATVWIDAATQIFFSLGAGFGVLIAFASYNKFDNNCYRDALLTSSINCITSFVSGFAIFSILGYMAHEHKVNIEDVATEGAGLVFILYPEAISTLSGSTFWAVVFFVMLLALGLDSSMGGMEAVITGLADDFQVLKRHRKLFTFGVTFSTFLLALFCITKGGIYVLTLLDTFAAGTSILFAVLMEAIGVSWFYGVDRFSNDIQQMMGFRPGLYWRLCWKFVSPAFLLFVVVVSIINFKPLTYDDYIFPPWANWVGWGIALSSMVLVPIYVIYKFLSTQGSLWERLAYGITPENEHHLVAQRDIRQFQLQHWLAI
Description: (§4) Dasotraline [(1R,4S)-4-(3,4-Dichlorophenyl)-1,2,3,4-tetrahydronaphthalen-1-amine] is a novel compound with DNRI pharmacology.

DAT sites = molecular target: T1, DAT sites (Homo sapiens, UniProt Q01959); assay: DAT site occupancy versus serum concentration (other studies, not shown); conditions: in vivo
T1 construct: from tissue; host or cells: in vivo occupancy
T1 sequence (Q01959 whole entry): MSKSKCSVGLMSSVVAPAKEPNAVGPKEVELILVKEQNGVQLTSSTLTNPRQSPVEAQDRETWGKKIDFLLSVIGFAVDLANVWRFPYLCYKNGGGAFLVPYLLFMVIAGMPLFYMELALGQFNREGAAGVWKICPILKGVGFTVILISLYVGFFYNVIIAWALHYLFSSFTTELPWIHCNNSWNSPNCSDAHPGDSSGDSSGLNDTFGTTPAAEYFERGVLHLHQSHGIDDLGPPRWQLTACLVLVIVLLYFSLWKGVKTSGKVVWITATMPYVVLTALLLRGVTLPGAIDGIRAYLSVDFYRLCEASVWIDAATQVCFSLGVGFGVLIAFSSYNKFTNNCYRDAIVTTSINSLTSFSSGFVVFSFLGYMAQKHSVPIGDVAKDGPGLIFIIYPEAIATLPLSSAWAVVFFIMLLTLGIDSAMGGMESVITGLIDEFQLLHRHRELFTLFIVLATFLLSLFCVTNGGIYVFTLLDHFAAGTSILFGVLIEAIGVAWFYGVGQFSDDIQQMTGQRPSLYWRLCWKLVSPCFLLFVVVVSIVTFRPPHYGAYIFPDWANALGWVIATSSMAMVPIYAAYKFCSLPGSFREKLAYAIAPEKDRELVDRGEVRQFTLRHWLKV

clinical [3] = type: in vivo, human; conditions: for steady-state concentration: predicted for longer-term administration from weeks 1-4
Method: as §1, §2, §3
From the measurements of serum concentration at 1, 2, 3, and 4 weeks, one can graph a predicted serum concentration on longer-term administration.

[4] = molecular target: human DA transporters (DAT) (Homo sapiens, UniProt Q01959); assay: dopamine uptake inhibition; type: biochemical
Sequence of human DA transporters (DAT) (Q01959 whole entry): as above
Description: as §4

[5] = test system: healthy recreational stimulant users; assay: single-dose crossover abuse potential study in recreational stimulant users; type: in vivo, human
Description: A single-dose, randomized, double-blind, double-dummy, placebo- and active-controlled crossover study with 6 treatment visits per subject was undertaken. […] Subjects participated in a medical screening visit (Visit 1), one 4-day inpatient qualification phase (Visit 2), a treatment phase (Visits 3 to 8) consisting of six 5-day inpatient treatment visits, and a safety follow-up visit (Visit 9). Within 21 days of the screening visit, subjects were enrolled and attended a qualification phase in which they received either 60 mg methylphenidate or matching placebo in a randomized double-blind crossover manner. Dosing times were separated by approximately 24 hours to ensure that subjects could discriminate and show positive effects of the positive control.
Healthy female and male subjects aged 18 to 55 years (inclusive), who were recreational central nervous system (CNS) stimulant users with cocaine experience and who had passed the methylphenidate qualification phase, were randomized into the treatment.
Drug administration occurred on Day 1 of each treatment visit followed by pharmacodynamic (PD), pharmacokinetic (PK), and safety assessments conducted for up to 72 hours post-dose. […] Subjects were randomized to one of 6 treatment sequences according to a 6×6 William square design. The capsules received at each treatment visit (Visits 3 to 8) were identical. Serial pharmacodynamic and pharmacokinetic evaluations were taken at each treatment visit. pharmacokinetic analysis was performed for dasotraline. Safety monitoring included regular assessments of vital signs, clinical laboratory tests, and adverse events (AEs), as well as continuous telemetry monitoring for at least 12 hours post-dose. Treatment visits were separated by a washout interval of at least 21 days (from the day of dosing). Subjects returned for the safety follow-up visit within approximately 14 days following the end of the last treatment visit.

adults with ADHD [6] = assay: Phase 2 study in adults with ADHD, efficacy (ADHD RS-IV, CGI-S, WRAADDS, cognition); type: in vivo, human
Method: as §1, §2, §3

[7] = test system: norepinephrine transporters; assay: circulating DHPG levels; type: in vivo, human; conditions: 8 mg/d
clinical [8] = type: in vivo, human
Method: Upon oral administration, methylphenidate is rapidly and completely absorbed from the gastrointestinal tract. Peak concentrations occur 1 to 2 hours after dose administration. […] When methylphenidate and cocaine are administered intravenously, their pharmacokinetics are quite similar—the percentage of each drug taken up by the brain and their rates of uptake are parallel, although the clearance from the brain of cocaine is faster than that of methylphenidate. The receptor-binding affinities for cocaine and methylphenidate are similar at the dopamine transporter in the basal ganglia and the striatum. […] Thus it appears that abuse may be related to a rapid surge in dopamine levels in the striatum. […] The consequence of the slow increase in dopamine is the absence of a “high”, and the consequence of the long T1/2 is that, following daily dosing, serum concentration gradually increases to a steady state over the course of about 7 days.

[9] = cited from earlier work
[10] = 8 mg once daily, all assessment weeks
[11] = methylphenidate 40 mg and 80 mg, single dose

## N[C@@H]1CC[C@@H](c2ccc(Cl)c(Cl)c2)c2ccccc21 [dasotraline, (1R,4S)-4-(3,4-Dichlorophenyl)-1,2,3,4-tetrahydronaphthalen-1-amine]
Adults with ADHD [1]; 8 mg once daily
  drug misuse or diversion, Abuse Potential Monitoring Plan: No evidence of drug misuse or diversion
Adults with ADHD [1]; 8 mg once daily, 4 weeks
  Treatment-emergent adverse events (TEAEs): higher than the percentage of TEAEs in the placebo group
  anxiety leading to discontinuation: 1.8%
  incidence of adverse events rated as severe: 13.5%
  insomnia leading to discontinuation: 10.8%
  panic attack leading to discontinuation: 2.7%
Adults with ADHD [1]; [10]
  Drug Effects Questionnaire mean item scores, distance from the 0-point: ≤ 5 mm
  Drug Effects Questionnaire, drug liking: No evidence of drug liking
Adults with ADHD [1]; after 4 weeks of 8 mg once daily
  withdrawal upon discontinuation of study drug: No signs or symptoms of withdrawal
Clinical [2]
  Cmax: ~0.003 µg/mL
  Tmax: > 6 h
NE transporters (NET)
  IC50: 4 nM
DAT sites
  serum concentration at 50% DAT site occupancy: 5 to 6 ng/mL
Clinical [3]; dose of 6 mg
  steady-state concentration: about 12 ng/mL
Clinical [3]; dose of 8 mg
  steady-state concentration: about 17 ng/mL
Clinical [3]; human, in vivo, 8 mg once daily, by week four, read-out: serum concentration plateau
  concentration at 4 weeks: 0.015 to 0.02 µg/mL
Clinical [3]; oral dosage form containing 6-8 mg
  serum concentration in the majority of patients: 0.01 to 0.018 µg/mL
[4]
  IC50: 3 nM
[5]; 16 mg single dose
  differences from placebo on pharmacodynamic endpoints: very few statistically significant differences from placebo
[5]; dasotraline 8, 16 and 36 mg, single dose
  effects on most pharmacodynamic endpoints versus placebo: not significantly different from those of placebo
Adults with ADHD [6]; 8 mg once daily
  computerized cognitive assessment battery: attention, working memory, episodic memory: no significant main effects
Adults with ADHD [6]; 8 mg once daily vs placebo
  Wender-Reimherr ADD total score: did not improve enough to achieve statistical significance
Adults with ADHD [6]; 8 mg once daily, Week 2
  ADHD RS-IV total score, LS mean change from baseline versus placebo: trend to separation from placebo
Adults with ADHD [6]; 8 mg once daily, week 4, vs placebo
  Wender-Reimherr subscore, attention difficulties component and disorganization component: statistically significant improvement
[7]
  circulating DHPG levels: decreased circulating DHPG levels
Clinical [8]; daily dosing
  time to steady state serum concentration: about 7 days
Clinical [8]; human, in vivo, po
  Tmax: 10 to 12 h
Clinical [8]; human, in vivo, read-out: serum half-life (t1/2)
  half-life: 47 to 77 h

## COC(=O)C(c1ccccc1)C1CCCCN1 (stereo not shown) [methylphenidate]
[9]; in vivo
  pharmacokinetic half-life: approximately 2 hours
[9]; oral administration
  time to peak concentrations: 1 to 2 h
[5]; [11]
  Drug Similarity Visual Analog Scale: strongly identified as a stimulant
  overall liking: “liked” by subjects overall
  pharmacodynamic endpoints including Drug Liking Visual Analog Scale, versus placebo: significant differences compared to placebo
  secondary stimulant measures: strong stimulant effects
